In PubChem BioAssay (NCI):
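How tested: cells in 96-well plates exposed to compound for 48 hours at five concentrations. Abbreviation: GI50, concentration required for 50% inhibition of growth. The concentration for full growth arrest is given as TGI.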

What was measured:
Test in all cases: NCI-60 cell line screen, 48 h
M14 melanoma = system: M14 melanoma
SF-539 CNS = system: SF-539 CNS
A498 renal = system: A498 renal
HCT-116 colon = system: HCT-116 colon
OVCAR-4 ovarian = system: OVCAR-4 ovarian
NCI-H460 lung = system: NCI-H460 lung
IGROV1 ovarian = system: IGROV1 ovarian
NCI-H522 lung = system: NCI-H522 lung
COLO 205 colon = system: COLO 205 colon

| SMILES | TGI (M14 melanoma) [µM] | TGI (SF-539 CNS) [µM] | TGI (A498 renal) [µM] | TGI (HCT-116 colon) [µM] | TGI (OVCAR-4 ovarian) [µM] | TGI (NCI-H460 lung) [µM] | TGI (IGROV1 ovarian) [µM] | TGI (NCI-H522 lung) [µM] | TGI (COLO 205 colon) [µM] | GI50 (M14 melanoma) [µM] | GI50 (COLO 205 colon) [µM] | GI50 (SF-539 CNS) [µM] | GI50 (A498 renal) [µM] | GI50 (HCT-116 colon) [µM] | GI50 (OVCAR-4 ovarian) [µM] | GI50 (NCI-H460 lung) [µM] | GI50 (IGROV1 ovarian) [µM] | GI50 (NCI-H522 lung) [µM] |
| --- | --- | --- | --- | --- | --- | --- | --- | --- | --- | --- | --- | --- | --- | --- | --- | --- | --- | --- |
| COc1ccc(C(=O)C(C(=O)CCC(=O)Nc2ccc(Cl)c(Cl)c2)c2ccc(OC)cc2)cc1 (configuration not stated) | > 100 | > 100 | > 100 | > 100 | > 100 | > 100 | > 100 | > 100 | – | – | – | – | – | – | – | – | – | – |
| O=S1OC(c2ccccc2)(c2ccccc2)C(c2ccccc2)(c2ccccc2)O1 | > 100 | > 100 | > 100 | > 100 | > 100 | > 100 | > 100 | > 100 | > 100 | – | – | – | – | – | – | – | – | – |
| CC(=O)C1(O)CC2(c3ccccc3)C(=O)C1(c1ccccc1)C(c1ccccc1)=C2c1ccccc1 (configuration not stated) | > 100 | > 100 | > 100 | > 100 | > 100 | > 100 | > 100 | > 100 | > 100 | – | – | – | – | – | – | – | – | – |
| N#CC(C(=O)CCCC(=O)Nc1ccccc1[N+](=O)[O-])c1c(Cl)cccc1Cl (configuration not stated) | > 100 | > 100 | > 100 | > 100 | > 100 | > 100 | > 100 | > 100 | > 100 | – | – | – | – | – | – | – | – | – |
| COc1ccc(C2COc3c(ccc(OC)c3OC)C2=O)cc1OC (configuration not stated) | > 100 | > 100 | > 100 | > 100 | > 100 | > 100 | > 100 | > 100 | > 100 | – | – | – | – | – | – | – | – | – |
| O=C(CCc1nnc2s/c(=C\c3ccc([N+](=O)[O-])cc3)c(=O)n12)Nc1ccc(Cl)c(Cl)c1 | 45 | 32.2 | > 100 | > 100 | 35.1 | > 100 | 50 | 32.3 | 82.9 | – | – | – | – | – | – | – | – | – |
| O=C([CH-]C(=O)c1ccccc1)c1ccccc1.O=C([CH-]C(=O)c1ccccc1)c1ccccc1.O=C([CH-]C(=O)c1ccccc1)c1ccccc1.[Ga+3] | > 100 | > 100 | > 100 | > 100 | > 100 | > 100 | > 100 | 68.6 | > 100 | 37.6 | > 100 | 33.9 | 56.8 | 23.4 | 64.7 | 16.3 | 81.9 | 19.3 |
| NC(N)NCCCc1cn2c(n1)C1CCCN1C(=O)C2Cc1ccccc1 (configuration not stated) | > 100 | > 100 | > 100 | > 100 | > 100 | > 100 | > 100 | > 100 | > 100 | – | – | – | – | – | – | – | – | – |
| Cn1cc(C2NC(=O)c3ccccc3N2)c2ccccc21 (configuration not stated) | > 65.8 | 6.87 | > 100 | > 20.4 | 58.4 | > 42.8 | > 100 | 2.56 | – | – | – | – | – | – | – | – | – | – |
| O=C(CCc1n[nH]c(=S)o1)Nc1cc(Cl)ccc1Cl | > 100 | > 100 | > 100 | 30.8 | > 100 | > 100 | > 100 | – | > 100 | – | – | – | – | – | – | – | – | – |
| O=C1C2C3CC4C5C3C1C5C1(SCCS1)C42 (configuration not stated) | > 100 | > 100 | > 100 | > 100 | > 100 | > 100 | > 100 | > 100 | > 100 | – | – | – | – | – | – | – | – | – |
| Cc1ccc(S(=O)c2ccccc2[N+](=O)[O-])cc1 (configuration not stated) | > 100 | > 100 | 88.1 | – | > 100 | > 100 | > 100 | > 100 | – | – | – | – | – | – | – | – | – | – |
| Cc1cc(N(CCC#N)CCC#N)ccc1/C=C(\NC(=O)/C=C/c1ccccc1)C(=O)N=[N+]=[N-] | > 100 | > 100 | > 100 | > 100 | – | > 100 | > 100 | > 100 | > 100 | – | – | – | – | – | – | – | – | – |
| CN(C)CCC(N)(P(=O)([O-])[O-])P(=O)([O-])[O-].N.N.[Pt+2] | > 100 | > 100 | > 100 | > 100 | > 100 | – | > 100 | > 100 | > 100 | > 100 | > 100 | > 100 | > 100 | > 100 | > 100 | – | > 100 | > 100 |
| CC(=O)OC(C)(C)C1CC[C@]2(C)/C=C/C(C)C[C@@H](O)/C=C(\C)CC(O)C12 (some centres not stated) | > 100 | > 100 | > 100 | > 100 | > 100 | > 100 | > 100 | – | > 100 | – | – | – | – | – | – | – | – | – |
| CCN(CC)CC(=O)NC1c2ccccc2Oc2ccccc21 | > 100 | > 100 | – | > 100 | > 100 | > 100 | > 100 | – | > 100 | – | – | – | – | – | – | – | – | – |
| C[C@@H]1C(=O)CC2C(C)(C)CCC[C@]2(C)[C@@]12CC[C@]1(C=COC1)O2 (some centres not stated) | > 100 | > 100 | – | > 100 | > 100 | > 100 | > 100 | 50 | > 100 | – | – | – | – | – | – | – | – | – |
| NC1=C(O)c2cccc3cccc(c23)C1=O | > 100 | > 100 | > 100 | > 100 | > 100 | – | > 100 | > 100 | > 100 | – | – | – | – | – | – | – | – | – |
